Data published in patent US6403617B1, “Diaminopyridine-containing thiourea inhibitors of herpes viruses” (American Home Products Corp., priority 1998, dated 2002).

Experiments:
HSV-1 = test: HSV Antiviral (ELISA) Assay; assay type: cell-based, herpes simplex virus type 1; settings: Vero cells, HSV-1, about 24 hours post-infection
Description: Vero cells (ATCC #CCL-81) are plated on 96-well tissue cultugre plates at 3.5×10^4 cells per 100 μl tissue culture DMEM (Dulbecco's modified Eagle media) supplemented with 2% fetal bovine serum (FBS) in each well. After overnight incubation @ 37° C. (in 5% CO2) and 30 minutes prior to infection with HSV-1 (multiplicity of infection equal to 0.006), cells are either untreated, or treated with test compound (multiple concentrations) or reference standard drug control. After approximately 24 hours post-infection incubation @ 37° C. (in 5% CO2), cells are fixed for ELISA assay. The primary antibody is murine anti-HSV glycoprotein D monoclonal primary antibody and the secondary antibody is goat anti-mouse IgG linked to β-galactosidase. Thus the extent of viral replication is determined by assessing β-galactosidase activity by quantifying the generation of the 4-methyl umbelliferone fluorescent cleavage product after addition of the methyl umbelliferyl-β-D-galactoside (Sigma #M1633) substrate on a microfluorimeter (365 nm for excitation and 450 nm for emission). Antiviral activity (IC50) of the test compound is determined by comparing the flourescence obtained in absence of compound to that obtained in the presence of compound.

VZV strain Ellen = test: VZV Antiviral (ELISA) Assay; assay type: cell-based, varicella-zoster virus; settings: human foreskin fibroblast cells, three days
Description: For the generation of stock VZV to be used in the assay, VZV strain Ellen (ATCC #VR-1367) is used to infect human foreskin fibroblast (HFF) cells at low multiplicity (less than 0.1) and incubated overnight at 37° C. in 5% CO2. After the overnight incubation, the mixture of uninfected and VZV-infected HFF infected cells are then harvested and added to each well of 96-well plates (3.5×10^4 cells in 100 μl DMEM supplemented with 2% FBS) which contain test compound or the reference standard drug control (in 100 μl DMEM supplemented with 2% FBS per well). These cells are incubated for three days at 37° C. in 5% CO2, then fixed for ELISA assay. The primary antibody is murine anti-VZV glycoprotein II monoclonal antibody (Applied Biosystems, Inc. #13-145-100) and the secondary antibody is goat anti-mouse IgG linked to β-galactosidase. Thus the extent of viral replication is determined by assessing β-galactosidase activity by quantifying the generation of the 4-methyl umbelliferone fluorescent cleavage product after addition of the methyl umbelliferyl-β-D-galactoside (Sigma #M1633) substrate on a microfluorimeter (365 nm for excitation and 450 nm for emission). Antiviral activity (IC50) of the test compound is determined by comparing the flourescence obtained in absence of compound to that obtained in the presence of compound.

HCMV wild-type = test: HCMV yield assay; assay type: cell-based, Human Cytomegalovirus; settings: human foreskin fibroblasts, reduction of virus yield by 50%
Description: Yield assay. Monolayer cultures of human foreskin fibroblasts are infected with HCMV wild-type, typically at a multiplicity of infection equal to 0.2, in the presence of inhibitor compound (varying concentrations). At three days post-infection, total virus produced in these cultures (i.e. virus yield) is assessed by harvesting and titering the virus in 12-well plates of cultured human foreskin fibroblasts (done in the absence of inhibitor). Plaques are quantified at 2 weeks post-infection. An inhibitor of HCMV is identified by the reduction in titer of virus yield in the presence, compared to the titer in the absence of compound. In this assay, the relative anti-HCMV activity of an inhibitor is typically determined by calculating the IC50 or IC90 value, that is, the amount of compound required to reduce the virus yield by 50% or 90%, respectively. Table I describes IC50 data for compounds tested against HCMV.

Row | Compound | IC50 (HSV-1; Human alphaherpesvirus 1, read-out: IC50 (ug/ml) HSV) [µg/mL] | inhibition at 10 µg/mL (VZV strain Ellen; Human alphaherpesvirus 3, 72 h, read-out: % inhibition 10 ug/ml VZV, 10 ug/ml) [%] | IC50 (VZV strain Ellen; Human alphaherpesvirus 3, 72 h, read-out: IC50 (ug/ml) VZV) [µg/mL] | IC50 (HCMV wild-type; Human betaherpesvirus 5, Fibroblast, read-out: IC50 (ug/ml) HCMV) [µg/mL] | IC50 (ug/ml) HSV (HSV-1) [µg/mL] | % inhibition 10 ug/ml VZV (VZV strain Ellen; 10 ug/ml) [%] | IC50 (ug/ml) VZV (VZV strain Ellen) [µg/mL] | IC50 (ug/ml) HCMV (HCMV wild-type) [µg/mL]
1 | O=C(Nc1ccc(NC(=S)Nc2cc(Cl)cc(Cl)c2)cn1)c1csnn1 [Example 515, [1,2,3]Thiadiazole-4-carboxylic acid {5-[3-(3,5-dichloro-phenyl)-thioureido]-pyridin-2-yl}-amide] | > 10 | 30 | > 10 | > 10 |  |  |  | 
2 | Pyridine-2-carboxylic acid {6-[3-(5-chloro-2,4-dimethoxy-phenyl)-thioureido]-pyridin-3-yl}-amide [Example 506] |  |  |  |  | >10 | 68 | >10 | >10
